Assays:
KIF5B-RET-BaF3 = target: T1, KIF5B-RET-BaF3 (Homo sapiens, UniProt P07949); test: Growth inhibition of KIF5B-RET-BaF3 cells stably transfected with kinase (MTS); type: cell-based; settings: 48 h, read-out: KIF5B-RET (IC50/nM)
T1 construct: fused on or other part: P33176 (Kinesin-1 heavy chain)
Experimental: (§1) Growth inhibitory activity of compounds on cell lines stably transfected with kinase
(§2) The activity of compounds against kinase RET is evaluated by their effect of inhibiting growth of cell lines stably transfected with kinase CCDC6-RET-BaF3, KIF5B-RET-BaF3, and wild-type BaF3 (Proc. Natl. Acad. Sci. USA., 2006, 103, 3153-8.). The growth of the cell lines stably transfected with kinase CCDC6-RET-BaF3, KIF5B-RET-BaF3 depends on their kinase activity. If a compound can inhibit the activity of the kinase RET per se or the activity of the RET signaling pathway, the compound can inhibit the growth of BaF3 cells stably transfected with kinase. […] Therefore, a larger ratio between IC50 of a compound to wild-type BaF3 and IC50 of the compound to the cell lines stably transfected with kinase CCDC6-RET-BaF3, KIF5B-RET-BaF3 indicates better targeting.
(§3) The specific test method is given as follows:
(§4) 1) Medium: DMEM (Dulbecco's modified eagle medium) or RPMI 1640 (containing 10% fetal bovine serum, 100 μg/mL ampicillin, 100 μg/mL streptomycin).
(§5) 2) Reagents: MTS reaction solution (containing 2 mg/mL of MTS [3-(4,5-dimethylthiazol-2-yl)-5-(3-carboxymethoxyphenyl)-2-(4-sulfophenyl)-2H-tetrazolium, inner Salt]; 100 μg/mL PES (phenazine […])).
(§6) 3) Compound test: cells stably transfected with kinase (CCDC6-RET-BaF3, KIF5B-RET-BaF3) or wild-type BaF3 cells (2×10^4 cells/well) were incubated into a 96-well culture plate, the volume of cell culture fluid was 90 μL, and then 10 μL of the compound at each gradient concentration was added (the highest concentration was 10 μM, which was diluted stepwise by ⅓, and 8 concentration points were set in total; the system contained 0.1% DMSO (dimethyl sulfoxide)). The cell plate with uniformly mixed compound was cultured in a cell culture incubator (37° C.; 5% CO2) for 48 h, then 20 μL of MTS reaction solution was added, uniformly mixed and incubated in the cell culture incubator (37° C.; 5% CO2) for 1-4 hr, OD values at 490 nm were measured by a microplate reader (VARIOSKAN FLASH, Thermo). Three parallels were set in each group of experiments, with 0.1% (a final concentration) DMSO as a negative control, and a medium without cells or compounds as a blank control. The cell growth inhibition rate was calculated by the following formula: Cell growth inhibition rate %=1−(ODexperimental group−ODblank group)/(ODnegative group−ODblank group)×100%
(§7) 4) IC50 calculation: The semi-inhibitory concentration of the compound acting on cell growth was calculated using GradPad Prism 5 software according to the measured cell growth inhibition rate.

CCDC6-RET-BaF3 = target: T2, CCDC6-RET-BaF3 (Homo sapiens, UniProt P07949); test: Growth inhibition of CCDC6-RET-BaF3 cells stably transfected with kinase (MTS); type: cell-based; settings: 48 h, read-out: CCDC6-RET (IC50/nM)
T2 construct: fused on or other part: Q16204 (Coiled-coil domain-containing protein 6)
Experimental: as §1, §2, §3, §4, §5, §6, §7

T1 sequence (P07949 whole entry, change not shown, the tested form may be a part): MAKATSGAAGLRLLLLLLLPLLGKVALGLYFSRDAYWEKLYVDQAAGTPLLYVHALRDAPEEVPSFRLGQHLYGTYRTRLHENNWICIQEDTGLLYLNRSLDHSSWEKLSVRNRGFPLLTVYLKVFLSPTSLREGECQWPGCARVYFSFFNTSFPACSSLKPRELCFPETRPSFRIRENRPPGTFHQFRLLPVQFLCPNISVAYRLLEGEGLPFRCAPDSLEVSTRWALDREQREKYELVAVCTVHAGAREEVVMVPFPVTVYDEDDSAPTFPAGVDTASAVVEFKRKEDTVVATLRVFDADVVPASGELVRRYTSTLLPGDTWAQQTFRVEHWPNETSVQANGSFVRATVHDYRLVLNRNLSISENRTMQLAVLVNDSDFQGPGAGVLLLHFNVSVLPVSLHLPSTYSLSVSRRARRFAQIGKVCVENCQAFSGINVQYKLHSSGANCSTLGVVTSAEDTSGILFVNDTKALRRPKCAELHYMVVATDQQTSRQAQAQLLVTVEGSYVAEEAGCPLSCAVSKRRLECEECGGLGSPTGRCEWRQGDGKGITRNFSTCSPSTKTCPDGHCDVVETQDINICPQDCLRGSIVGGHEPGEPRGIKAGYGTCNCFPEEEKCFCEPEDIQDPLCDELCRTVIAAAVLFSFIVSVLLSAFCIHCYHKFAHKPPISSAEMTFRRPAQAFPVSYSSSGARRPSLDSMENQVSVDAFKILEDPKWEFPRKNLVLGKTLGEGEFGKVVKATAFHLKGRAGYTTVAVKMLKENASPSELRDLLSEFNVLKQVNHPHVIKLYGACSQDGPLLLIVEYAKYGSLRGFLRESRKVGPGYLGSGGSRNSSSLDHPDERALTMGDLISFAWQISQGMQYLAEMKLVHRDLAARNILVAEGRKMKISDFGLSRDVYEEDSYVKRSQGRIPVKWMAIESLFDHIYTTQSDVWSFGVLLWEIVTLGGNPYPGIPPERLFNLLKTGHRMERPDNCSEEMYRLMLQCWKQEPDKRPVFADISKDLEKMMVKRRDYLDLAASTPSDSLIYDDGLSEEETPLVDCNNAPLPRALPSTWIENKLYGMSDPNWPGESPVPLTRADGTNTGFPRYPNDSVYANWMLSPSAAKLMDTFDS
T2 sequence (P07949 whole entry, change not shown, the tested form may be a part): as above

Structure (SMILES) | GI50 (KIF5B-RET-BaF3) | GI50 (CCDC6-RET-BaF3)
Cc1ccc(Oc2nc(-c3cccnc3)nc3cc[nH]c23)cc1C(=O)Nc1cc(CN2CCN(C)CC2)cc(C(F)(F)F)c1 [III-r-1] | 4770 nM | 4450 nM
CCC(=O)NCC1CCN(c2ccc(NC(=O)c3ccc(C)c(Oc4nc(-c5ccncc5)nc5c4cnn5C)c3)cc2C(F)(F)F)CC1 [II-v-9] | 934 nM | 961 nM
CN1CCN(Cc2ccc(C(=O)Nc3cccc(Oc4nc(-c5cccnc5)nc5ccn(C)c45)c3)cc2C(F)(F)F)CC1 [III-h-3] | 2140 nM | 4100 nM
Cc1ccc(C(=O)Nc2ccc(CN3CCN(C)CC3)c(C(F)(F)F)c2)cc1Oc1nc(N2CCOCC2)nc2c1cnn2C [II-m-15] | 18 nM | 111 nM
Cc1ccc(C(=O)Nc2cc(CN3CCN(C)CC3)cc(C(F)(F)F)c2)cc1Oc1nc(-c2ccncc2)nc2c1cnn2C [II-s-2] | 355 nM | 188 nM
CCS(=O)(=O)NC1CCN(c2ccc(NC(=O)c3ccc(C)c(Oc4nc(-c5ccncc5)nc5ccn(C)c45)c3)cc2C(F)(F)F)CC1 [III-v-11] | 1460 nM | 3330 nM
CN1CCN(Cc2cc(NC(=O)c3cccc(Oc4nc(-c5cccnc5)nc5c4cnn5C)c3)cc(C(F)(F)F)c2)CC1 [II-p-1] | 251 nM | 268 nM
Cc1ccc(Oc2nc(-c3ccoc3)nc3c2cnn3C)cc1NC(=O)c1ccc(CN2CCN(C)CC2)c(C(F)(F)F)c1 [II-j-3] | 3210 nM | 1420 nM
CC(=O)NCC1CCN(c2ccc(NC(=O)c3ccc(C)c(Oc4nc(-c5cccnc5)nc5c4cnn5C)c3)cc2C(F)(F)F)CC1 [II-v-10] | 463 nM | 492 nM
CN1CCN(Cc2ccc(NC(=O)c3cc(Oc4nc(-c5ccsc5)nc5nn(C)cc45)ccc3Cl)cc2C(F)(F)F)CC1 [IV-o-11] | 1620 nM | 3030 nM
CN1CCN(Cc2ccc(NC(=O)c3cccc(Oc4nc(-c5cccnc5)nc5ccn(C)c45)c3)cc2C(F)(F)F)CC1 [III-l-3] | 1540 nM | 1400 nM
CN1CCN(Cc2ccc(NC(=O)c3cc(Oc4nc(-c5ccoc5)nc5nn(C)cc45)ccc3Cl)cc2C(F)(F)F)CC1 [IV-o-10] | 3760 nM | 4290 nM
Cc1ccc(Oc2nc(-c3cccnc3)nc3c2cnn3C)cc1NC(=O)c1ccc(CN2CCN(C)CC2)c(C(F)(F)F)c1 [II-j-1] | 4420 nM | 4170 nM
CN1CCN(Cc2cc(NC(=O)c3cccc(Oc4nc(-c5ccncc5)nc5c4cnn5C)c3)cc(C(F)(F)F)c2)CC1 [II-p-2] | 521 nM | 458 nM
CN1CCN(Cc2ccc(NC(=O)c3cc(Oc4nc(-c5ccoc5)nc5c4ncn5C)ccc3Cl)cc2C(F)(F)F)CC1 [I-o-10] | 1910 nM | 1370 nM
CN1CCN(Cc2ccc(C(=O)Nc3cccc(Oc4nc(-c5cccnc5)nc5cc[nH]c45)c3)cc2C(F)(F)F)CC1 [III-h-1] | 1540 nM | 2810 nM
Cc1ccc(C(=O)Nc2ccc(CN3CCN(C)CC3)c(C(F)(F)F)c2)cc1Oc1nc(-c2cccnc2)nc2cc[nH]c12 [III-m-1] | 2100 nM | 4500 nM
Cc1ccc(Oc2nc(-c3ccncc3)nc3c2ncn3C)cc1C(=O)Nc1cccc(C(F)(F)F)c1 [I-f-2] | 8120 nM | 4850 nM
Cc1ccc(C(=O)Nc2ccc(CN3CCN(C)CC3)c(C(F)(F)F)c2)cc1Oc1nc(-c2ccc(Cl)cc2)nc2c1cnn2C [II-m-6] | 114 nM | 696 nM
CCC(=O)NCC1CCN(c2ccc(NC(=O)c3ccc(C)c(Oc4nc(-c5cccnc5)nc5cc[nH]c45)c3)cc2C(F)(F)F)CC1 [III-v-12] | 191 nM | 149 nM
Cc1ccc(C(=O)Nc2ccc(CN3CCN(C)CC3)c(C(F)(F)F)c2)cc1Oc1nc(-c2ccoc2)nc2c1cnn2C [II-m-9] | 14.6 nM | 75.1 nM
CN1CCN(Cc2ccc(NC(=O)c3cc(Oc4nc(-c5ccc(N)cc5)nc5nn(C)cc45)ccc3Cl)cc2C(F)(F)F)CC1 [IV-o-9] | 4360 nM | 4810 nM

The next lines start with the values.

GI50 (KIF5B-RET-BaF3) | GI50 (CCDC6-RET-BaF3) | Structure (SMILES)
1860 nM | 2030 nM | Cc1ccc(Oc2nc(-c3ccsc3)nc3c2ncn3C)cc1C(=O)Nc1ccc(CN2CCN(C)CC2)c(C(F)(F)F)c1 [I-n-12]
405 nM | 221 nM | Cc1ccc(Oc2cc(-c3ccncc3)nc3sccc23)cc1C(=O)Nc1ccc(CN2CCN(C)CC2)c(C(F)(F)F)c1 [VII-n-2]
4230 nM | 4310 nM | Cc1ccc(Oc2nc(-c3cccc(O)c3)nc3nn(C)cc23)cc1C(=O)Nc1ccc(CN2CCN(C)CC2)c(C(F)(F)F)c1 [IV-n-6]
3100 nM | 4260 nM | Cc1ccc(Oc2nc(-c3cccnc3)nc3ccn(C)c23)cc1NC(=O)c1ccc(CN2CCN(C)CC2)c(C(F)(F)F)c1 [III-j-5]
315 nM | 215 nM | CN1CCN(Cc2ccc(NC(=O)c3cccc(Oc4cc(-c5ccncc5)nc5sccc45)c3)cc2C(F)(F)F)CC1 [VII-l-2]
499 nM | 326 nM | CN1CCN(Cc2ccc(NC(=O)c3cc(Oc4cc(-c5ccncc5)nc5sccc45)ccc3Cl)cc2C(F)(F)F)CC1 [VII-o-2]
388 nM | 472 nM | Cc1ccc(Oc2cc(-c3ccncc3)nc3c2ccn3C)cc1C(=O)Nc1ccc(CN2CCN(C)CC2)c(C(F)(F)F)c1 [V-n-16]
3940 nM | 2810 nM | Cc1ccc(Oc2nc(-c3ccc(O)cc3)nc3nn(C)cc23)cc1C(=O)Nc1ccc(CN2CCN(C)CC2)c(C(F)(F)F)c1 [IV-n-7]
1330 nM | 1360 nM | Cc1ccc(NC(=O)c2ccc(CN3CCN(C)CC3)c(C(F)(F)F)c2)cc1Oc1cc(-c2ccncc2)nc2sccc12 [VII-i-2]
2760 nM | 3150 nM | Cc1ccc(C(=O)Nc2ccc(CN3CCN(C)CC3)c(C(F)(F)F)c2)cc1Oc1nc(-c2ccoc2)nc2ccn(C)c12 [III-m-17]
2810 nM | 2960 nM | Cc1ccc(Oc2cc(-c3ccncc3)nc3[nH]ccc23)cc1C(=O)Nc1cc(CN2CCN(C)CC2)cc(C(F)(F)F)c1 [V-r-1]
3110 nM | 4280 nM | CN1CCN(Cc2ccc(NC(=O)c3cc(Oc4nc(-c5cccc(Cl)c5)nc5nn(C)cc45)ccc3Cl)cc2C(F)(F)F)CC1 [IV-o-4]
1400 nM | 1400 nM | Cc1ccc(Oc2nc(-c3ccc(N)cc3)nc3c2ncn3C)cc1C(=O)Nc1ccc(CN2CCN(C)CC2)c(C(F)(F)F)c1 [I-n-10]
1330 nM | 2020 nM | Cc1ccc(NC(=O)c2ccc(CN3CCN(C)CC3)c(C(F)(F)F)c2)cc1Oc1nc(-c2ccncc2)nc2ccn(C)c12 [III-i-4]
5.71 nM | 22.7 nM | CN1CCN(Cc2ccc(NC(=O)c3cccc(Oc4nc(-c5ccncc5)nc5cc[nH]c45)c3)cc2C(F)(F)F)CC1 [III-l-2]
3540 nM | 4150 nM | Cc1ccc(Oc2nc(-c3ccccc3)nc3nn(C)cc23)cc1C(=O)Nc1ccc(CN2CCN(C)CC2)c(C(F)(F)F)c1 [IV-n-3]
180 nM | 195 nM | CN1CCN(Cc2ccc(C(=O)Nc3cccc(Oc4nc(-c5ccncc5)nc5ccn(C)c45)c3)cc2C(F)(F)F)CC1 [III-h-4]
1080 nM | 637 nM | CN1CCN(Cc2ccc(C(=O)Nc3cccc(Oc4cc(-c5ccncc5)nc5sccc45)c3)cc2C(F)(F)F)CC1 [VII-h-2]
4020 nM | 4170 nM | CN1CCN(Cc2ccc(NC(=O)c3cc(Oc4nc(-c5cccnc5)nc5c4cnn5C)ccc3Cl)cc2C(F)(F)F)CC1 [II-o-1]
21 nM | 53.7 nM | Cc1ccc(Oc2nc(-c3ccncc3)nc3cc[nH]c23)cc1C(=O)Nc1ccc(CN2CCN(C)CC2)c(C(F)(F)F)c1 [III-n-2]
4180 nM | 4310 nM | CN1CCN(Cc2ccc(NC(=O)c3cc(Oc4nc(-c5ccccc5)nc5nn(C)cc45)ccc3Cl)cc2C(F)(F)F)CC1 [IV-o-3]
1500 nM | 1390 nM | CN1CCN(Cc2ccc(NC(=O)c3cc(Oc4nc(-c5ccc(N)cc5)nc5c4ncn5C)ccc3Cl)cc2C(F)(F)F)CC1 [I-o-9]
1620 nM | 2090 nM | Cc1ccc(Oc2nc(-c3cccc(N)c3)nc3nn(C)cc23)cc1C(=O)Nc1ccc(CN2CCN(C)CC2)c(C(F)(F)F)c1 [IV-n-8]
1960 nM | 1200 nM | Cc1ccc(Oc2nc(-c3ccoc3)nc3c2ncn3C)cc1C(=O)Nc1ccc(CN2CCN(C)CC2)c(C(F)(F)F)c1 [I-n-11]

— patent US11319322B2, “Substituted aryl ether compound, preparation method thereof, pharmaceutical composition and use thereof” (Xiamen University, priority 2017, dated 2022)
